In series [1] the test system is production of TNF-α by PBMC in response to stimulation by LPS. Kind of series: TNF-α assay. It is filed as cell-based, human. The settings on record: LPS 1 μg/ml, 72 hours, sandwich ELISA. Summed up:
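Cells were LPS-stimulated (1 μg/ml final) peripheral blood mononuclear cells at 10^6/ml, exposed 72 h at 37 °C to 0.1, 1 or 10 μM test compound.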
On the technique in general: An ELISA detects its analyte on a solid surface through an enzyme-linked reagent.

A short description of series [2]: Mixed lymphocyte reaction (MLR) assay. Type of series: cell-based, human. The settings on record: Homo sapiens, Lymphocyte; lowest concentration giving 50% suppression of the MLR; [3H]-thymidine.
The test system of series [3] is CII induced rheumatoid arthritis in DBA mice. The series is described as follows: Collagen type II induced model of rheumatoid arthritis. The conditions noted are these: mice in vivo; example 17 up to 40 mg/kg/day; methotrexate 10 mg/kg/day, 3 times a week. An excerpt: Collagen type II (hereinafter referred as CII) induced experimental model of rheumatoid arthritis (hereinafter referred as RA) in DBA mice is widely accepted as the most relevant and predictive preclinical model for RA. In this model, DBA mice are immunized with CII, the collagen type mainly present in the joint structures, together with complete Freund Adjuvant in their tail. 2 to 3 weeks later, several of the immunized mice start to develop arthritis in the four footpaths. In order to further worsen the disease, mice are given a second CII boost at three weeks after the first immunisation, this time however in a footpath. Because the immune system is already immunised in these mice, this rapidly provokes a severe swelling of the injected footpath (named Delayed Type Hypersensitivity or DTH) which can be used as a measurement for T-cell activation. Within a few days after the booster, almost all untreated animals start developing symptoms of arthritis. RA development is scored from 0 to 16 (16 being severe clinical arthritis in all four footpaths). At the end of the study (3 weeks after the CII boost) antibody formation was determined against CII and histology performed on the footpaths.
The efficiency of the pteridine derivative of example 17 (administered in an amount of 20 mg/kg/day, started one day before the CII boost) was explored in this CII-model.

Series [4] has as its system mixed lymphocyte reaction (PBMC with allogeneic PBMC or Eppstein-Barr Virus-transformed human B cells as stimulator cells). Kind of series: Mixed lymphocyte reaction (MLR) assay. It is filed as cell-based. The settings on record: lowest concentration giving 50% suppression of the MLR; [3H]-thymidine.
Series [5] in a line: Plasma levels after oral administration in healthy mice. Type of series: in vivo, C57BL/6 mice. The settings on record: 20 mg/kg once a day. Here is the method:
Each group of 6 mice received the indicated dose at time point 0 and were bled at 1, 3 and 5 hours after compound administration. Quantification was performed using a calibration curve of known compound concentrations spiked in control serum.
The plasma levels of the tested compound (example 176) was evaluated in C57BL/6 mice 8-10 weeks old Harlan, weighing 18.6-22.0 g after oral administration of 20, 10, 5 and 1 mg/kg, respectively (n=6 per dose). The tested compound (example 176) was dissolved in water to the appropriate concentration in order to deliver a constant gavage volume of 10 μl/g of body weight. Blood was collected by eye bleeding with heparinized capillaries at 1, 3, and 5 hours after dosing from each animal. The plasma fraction was immediately separated by centrifugation for 2 minutes at 12,000 g and stored at −80° C. until analysis. Each plasma sample was spiked with internal standard followed by the addition of 4 volumes of methanol. The samples were kept for 30 minutes on ice prior to centrifugation (10 minutes at 12,000 g) in order to remove precipitated proteins. The supernatant was analyzed for the presence of the tested compound (example 176), using LC/MS/MS. As standard for the bio-analysis, the tested compound (example 176) was diluted stepwise; each dilution was added to control plasma; additionally spiked with internal standard, giving rise to standard curves from 200 to 40,000 nM.

This is an account of results in patent US20070032477A1, “Pteridine derivatives useful for making pharmaceutical compositions” (priority 2003, published 2007).

Where a name gives a salt, the structure may show the parent alone.

On to `CCCN(CCC)CCN1CCN(c2nc(N)nc3ncc(-c4ccc(OC)c(OC)c4)nc23)CC1` [Example 183, 2-amino-6-(3,4-dimethoxyphenyl)-4-(4-(2-dipropylaminoethyl)-piperazin-1-yl)pteridine trihydrochloride salt], for which the IC50 (commonly the concentration needed to halve the response being measured) in series [1] (Homo sapiens) was 1200 nM; in series [2], 8200 nM.
In the case of `CN(Cc1cnc2nc(N)nc(N)c2n1)c1ccc(C(=O)N[C@@H](CCC(=O)O)C(=O)O)cc1` [methotrexate, reference compound], the “mortality or cytotoxic effect on increasing the dose” value in series [3] is “death of all animals”.
On to `CCCCCC(=O)N1CCN(c2nc(N)nc3ncc(-c4ccc(OC)c(OC)c4)nc23)CC1` [Example 10, 2-amino-4-[(N-hexanoyl)-piperazin-1-yl]-6-(3,4-dimethoxyphenyl)pteridine], for which the IC50 in series [1] worked out at 70 nM; in series [4], 100 nM. Moreover, the “serum concentrations versus in vitro IC50 for IL-1β production or T cell activation” value in series [5] was “insufficient to inhibit IL-1β production or T cell activation”.
Turning to `COc1ccc(-c2cnc3nc(N)nc(N4CCN(CCN5CCCCC5)CC4)c3n2)cc1OC` [Example 184, 2-amino-6-(3,4-dimethoxyphenyl)-4-(4-(2-piperidin-1-yl-ethyl)-piperazin-1-yl)pteridine trihydrochloride salt], the results for the IC50 in series [1] (Homo sapiens) and in series [2] were 700 nM and 7700 nM, respectively.
`CCOCCN1CCN(c2nc(N)nc3ncc(-c4ccc(OC)c(OC)c4)nc23)CC1` [Example 165, 2-amino-6-(3,4-dimethoxyphenyl)-4-(4-(2-ethoxyethyl)-piperazin-1-yl)pteridine]: the IC50 is 300 nM in series [1] (Homo sapiens) and 2900 nM in series [2].
Take `COc1ccc(-c2cnc3nc(N)nc(N4CCN(CCC5OCCO5)CC4)c3n2)cc1OC` [Example 164, 2-amino-6-(3,4-dimethoxyphenyl)-4-(4-(2-(1,3)-dioxolan-2-yl-ethyl)-piperazin-1-yl)pteridine]: the figures for the concentration for half-maximal inhibition (IC50) in series [1] (Homo sapiens) and in series [2] were 200 nM and 2300 nM, respectively.
Turning to `COc1ccc(-c2cnc3nc(N)nc(N4CCC(C(=O)CN5CCNCC5)C4)c3n2)cc1OC` (stereo not shown) [Example 131, 2-amino-4-(4-[2-(piperazin-1-yl)-acetyl]-pyrrolidino)-6-(3,4-dimethoxy-phenyl)pteridine], the IC50 in series [1] (Homo sapiens) was 1900 nM; in series [2] it was 300 nM.
Consider `COc1ccc(-c2cnc3nc(NCc4ccccc4)nc(N)c3n2)cc1OC` [Example 82, 2-benzylamino-4-amino-6-(3,4-dimethoxyphenyl)pteridine], for which, in series [2], the concentration for half-maximal inhibition (IC50) worked out at 3200 nM.
The compound `COc1ccc(-c2cnc3nc(NCc4cccs4)nc(N)c3n2)cc1OC` [Example 80, 2-(2-thienylmethylamino)-4-amino-6-(3,4-dimethoxyphenyl)pteridine] came in with an IC50 in series [2] of 4700 nM.
